The values that follow come from ChEMBL document CHEMBL5241069, “A key review on oxadiazole analogs as potential methicillin-resistant Staphylococcus aureus (MRSA) activity: Structure-activity relationship studies” (Eur J Med Chem, 2021).

≈ marks a conversion by molar mass, not a printed value.

For assay [1], the system named is Staphylococcus aureus. Put plainly: Antimicrobial activity against methicillin resistant Staphylococcus aureus ATCC 43300 assessed as inhibition of bacterial growth incubated for 18 to 24 hrs by broth microdilution method. In kind it is functional. Conditions: time 18-24 hrs. On the technique in general: Dilution methods test growth across graded concentrations, often in twofold steps.

Assay [2] has as its system Staphylococcus aureus. Put plainly: Antibacterial activity against methicillin resistant Staphylococcus aureus assessed as inhibition zone by CLSI protocol based agar disc diffusion method. In kind it is functional. On the technique in general: Agar diffusion results depend on both activity and mobility in agar.
Assay [3] has as its system Staphylococcus aureus. Description: Antimicrobial activity against methicillin resistant Staphylococcus aureus 2658 RCMB assessed as inhibition of bacterial growth incubated for 20 hrs by CLSI protocol based broth microdilution method. In kind it is functional.
In assay [4] the test system is Staphylococcus aureus. Put plainly: Antimicrobial activity against methicillin resistant Staphylococcus aureus ATCC 25923 assessed as inhibition of bacterial growth by agar diffusion cup plate method. In kind it is functional.
Assay [5] has as its system Staphylococcus aureus. Description: Antimicrobial activity against methicillin resistant Staphylococcus aureus USA300 assessed as inhibition of bacterial growth incubated for 16 to 20 hrs by CLSI protocol based method. In kind it is functional. To be noted: time 16-20 hrs.
In assay [6] the test system is Staphylococcus aureus. Put plainly: Antimicrobial activity against Staphylococcus aureus Newman assessed as inhibition of bacterial growth incubated for 16 to 20 hrs by CLSI protocol based method. Conditions: time 16-20 hrs. In kind it is functional.
Assay [7] has as its system Staphylococcus aureus. Put plainly: Antimicrobial activity against methicillin resistant Staphylococcus aureus A252 assessed as inhibition of bacterial growth incubated for 16 to 20 hrs by CLSI protocol based method. In kind it is functional. Conditions: time 16-20 hrs.
Assay [8] deals with Staphylococcus aureus. Description: Antibacterial activity against methicillin resistant Staphylococcus aureus USA300 assessed as inhibition of bacterial growth incubated for 16 to 20 hrs by CLSI protocol based Mueller-Hinton broth method. Conditions: time 16-20 hrs. In kind it is functional.
In assay [9] the test system is Staphylococcus aureus. Put plainly: Antibacterial activity against methicillin resistant Staphylococcus aureus MW2 assessed as inhibition of bacterial growth incubated for 16 to 20 hrs by CLSI protocol based Mueller-Hinton broth method. To be noted: time 16-20 hrs. In kind it is functional.
The subject of assay [10] is Staphylococcus aureus. Description: Antibacterial activity against methicillin resistant Staphylococcus aureus 181 assessed as inhibition of bacterial growth. In kind it is functional.
Assay [11] concerns Staphylococcus aureus. Put plainly: Antibacterial activity against methicillin resistant Staphylococcus aureus 42 assessed as inhibition of bacterial growth. In kind it is functional.
The subject of assay [12] is Staphylococcus aureus. Description: Antibacterial activity against methicillin resistant Staphylococcus aureus 747 assessed as inhibition of bacterial growth. In kind it is functional.
In assay [13] the test system is Staphylococcus aureus. Put plainly: Antibacterial activity against methicillin resistant Staphylococcus aureus 128 assessed as inhibition of bacterial growth. In kind it is functional.
The subject of assay [14] is Staphylococcus aureus. Description: Antibiofilm activity against methicillin resistant Staphylococcus aureus ATCC 43866 assessed as inhibition of biofilm formation incubated for 18 to 24 hrs by tissue culture plate method. In kind it is functional. To be noted: time 18-24 hrs.
For assay [15], the system named is Staphylococcus aureus. Put plainly: Antibacterial activity against methicillin resistant Staphylococcus aureus MTCC 84 incubated for 24 hrs by serial dilution method. In kind it is functional.
The subject of assay [16] is Staphylococcus aureus. Description: Antibacterial activity against methicillin resistant Staphylococcus aureus assessed as inhibition zone by disc diffusion method. In kind it is functional.
Assay [17] concerns Staphylococcus aureus. Put plainly: Antibacterial activity against methicillin resistant Staphylococcus aureus assessed as inhibition of bacterial growth. In kind it is functional, organism-based.
In assay [18] the test system is Staphylococcus aureus. Description: Antibacterial activity against methicillin resistant Staphylococcus aureus ATCC 43300 assessed as inhibition of bacterial growth incubated for 24 to 48 hrs by spectrophotometric analysis. To be noted: time 24-48 hrs. In kind it is functional.

As to `C=C(C)C(=O)OCC[N+](C)(C)Cc1nnc(CCCCc2nnc(C[N+](C)(C)CCOC(=O)C(=C)C)o2)o1.[Cl-].[Cl-]`, the MIC in assay [1] came to 0.98 µg/mL.

As for `O=[N+]([O-])c1ccc(C(Nc2nnc(-c3cccc(Br)n3)o2)P(=O)(Oc2ccccc2)Oc2ccccc2)cc1F` (centres undefined), the “inhibition zone (IZ)” value in assay [2] is 17 mm.

Take `CNC(=N)Nc1nnc(-c2sc(-c3ccc4ccccc4c3)nc2C)o1`: the MIC in [3] amounted to 3.9 µg/mL (≈ 10.7 µM).

Take `O=P(Oc1ccccc1)(Oc1ccccc1)C(Nc1nnc(-c2cccc(Br)n2)o1)c1ccc(Cl)c(F)c1` (centres undefined): the “inhibition zone (IZ)” value in assay [2] was determined as 17 mm.

As to `Cc1nnc(-c2ccc(O)cc2)o1`, the MIC in assay [4] was 25 µg/mL (≈ 142 µM).

For the compound `O=C(Nc1nnc(-c2ccc(F)cc2)o1)c1cccc(C(F)(F)F)c1`, the values for the MIC in assay [5], in [6] and in assay [7] were 0.35 µg/mL (≈ 0.996 µM), 0.7 µg/mL (≈ 1.99 µM) and 0.7 µg/mL (≈ 1.99 µM), respectively.

As for `Cc1nc(-c2ccc3ccccc3c2)sc1-c1nnc(NN)o1`, the MIC in [3] is 3.9 µg/mL (≈ 12.1 µM).

Broadly, the MBC is the lowest tested concentration that kills the bacteria rather than only halting them. Take `COc1cc(OC)cc(-c2nnc(NC(=O)c3ccc(S(=O)(=O)C4COCC4(C)C)cc3)o2)c1` (centres undefined): the values for the MBC in assay [8] and in assay [9] were 8 µg/mL (≈ 16.4 µM) and 16 µg/mL (≈ 32.8 µM), respectively.

Take `C=C(C)C(=O)OCC[N+](CC)(CC)Cc1nnc(CCCCc2nnc(C[N+](CC)(CC)CCOC(=O)C(=C)C)o2)o1.[Cl-].[Cl-]`: in assay [1], the MIC came to 0.98 µg/mL.

As for `CN[C@H](CC(C)C)C(=O)N[C@H]1C(=O)N[C@@H](CC(N)=O)C(=O)N[C@H]2C(=O)N[C@H]3C(=O)N[C@H](C(=O)N[C@H](C(=O)O)c4cc(O)cc(O)c4-c4cc3ccc4O)[C@H](O)c3ccc(c(Cl)c3)Oc3cc2cc(c3O[C@@H]2O[C@H](CO)[C@@H](O)[C@H](O)[C@H]2O[C@H]2C[C@](C)(N)[C@H](O)[C@H](C)O2)Oc2ccc(cc2Cl)[C@H]1O` [VANCOMYCIN], the MIC amounted to 20.3 µg/mL (≈ 14 µM) in [10]; 1.95 µg/mL (≈ 1.35 µM) in [3]; 13.1 µg/mL (≈ 9.04 µM) in [11]; 21.6 µg/mL (≈ 14.9 µM) in [12]; 20.7 µg/mL (≈ 14.3 µM) in assay [13]; 6.25 µg/mL (≈ 4.31 µM) in assay [14].

As to GENTAMICIN, the MIC in assay [1] came out at 100 µg/mL.

Take `O=P(Oc1ccccc1)(Oc1ccccc1)C(Nc1nnc(-c2cccc(Br)n2)o1)c1cccc(F)c1` (centres undefined): the “inhibition zone (IZ)” value in assay [2] was 17 mm.

Regarding `O=P(Oc1ccccc1)(Oc1ccccc1)C(Nc1nnc(-c2cccc(Br)n2)o1)c1ccc(F)c(Cl)c1` (centres undefined), the “inhibition zone (IZ)” value in assay [2] turned out to be 17 mm.

In the case of `O=C(Nc1nnc(-c2ccc(F)cc2)o1)c1ccc(Cl)cc1`, the MIC stood at 0.64 µg/mL (≈ 2.01 µM) in assay [5], 1.28 µg/mL (≈ 4.03 µM) in [6] and 1.28 µg/mL (≈ 4.03 µM) in assay [7].

For the compound `O=C(O)c1cn(C2CC2)c2cc(N3CCNCC3)c(F)cc2c1=O` [CIPROFLOXACIN], in [15], the MIC is > 100 µg/mL. The “inhibition zone (IZ)” value in assay [16] is reported as 22 mm.

As for `Cc1nc(-c2ccc3ccccc3c2)sc1-c1nnc(N2CC(O)C2)o1`, in assay [3], the MIC was 3.9 µg/mL (≈ 10.7 µM).

Take “2-((phenylbismuthino)thio)-5-(2-(p-tolyl)thiazol-4-yl)-1,3,4-oxadiazole”: the MIC in assay [17] is 1.1 µM.

Regarding `O=C(/C=C/c1ccc([N+](=O)[O-])cc1)N1N=C(c2ccncc2)OC1c1cn(-c2ccccc2)nc1-c1ccc(F)cc1` (centres undefined), in [18], the MIC was 12.5 µg/mL (≈ 22.3 µM).
